Measured values reported in doi:10.1101/2024.08.25.609621 (bioRxiv, 2024).
Several values for one entry are separate records, joined by “and”; a condition that tells them apart may be missing. Identical values can stand only once. Like-named read-outs stand apart in the source and are kept apart here.

Columns and labels:
[1] = target: SARS-CoV-2 NSP3 macrodomain (Mac1), P43 crystal form (Severe acute respiratory syndrome coronavirus 2, UniProt P0DTD1); format: binding; conditions: for 1-BDC: PanDDA background density correction; for Total number of conformations: ligand conformations modeled in Mac1 crystal structure
[2] = target: SARS-CoV-2 NSP3 macrodomain (Mac1) (Severe acute respiratory syndrome coronavirus 2, UniProt P0DTD1); assay: biochemical; format: binding
[3] = ligand modeling in Mac1 crystal structure
[4] = stereoisomer(s) modeled in Mac1 crystal structure
[5] = dose-response, read-out: SARS CoV-2 macrodomain HTRF assay: IC50
[6] = dose-response, read-out: SARS CoV-2 macrodomain HTRF assay: Ki
[7] = from SARS CoV-2 macrodomain HTRF assay
[8] = ligand modeling in Mac1 crystal soak
[9] = stereoisomer(s) of ligand modeled in Mac1 crystal structure
[10] = preliminary screen, compound at 200 μM, mean of 3-4 technical replicates, read-out: % competition in HTRF assay
[11] = Single dose, concentration 200 μM, read-out: SARS CoV-2 macrodomain HTRF assay: Average % competition
[12] = Single dose, concentration 200 μM, read-out: Average % competition
[13] = soak concentration 10 mM, DMSO background map
[14] = SARS CoV-2 macrodomain HTRF assay, dose-response, read-out: IC50
[15] = SARS CoV-2 macrodomain HTRF assay, dose-response, read-out: Ki

**Q.** What does the source list for Cc1c[nH]c2ncnc(NCC3(O)CCOCC3)c12 [AVI-4194, 4-(((5-methyl-7H-pyrrolo[2,3-d]pyrimidin-4-yl)amino)methyl)tetrahydro-2H-pyran-4-ol]?
**A.** Number of isomers bound [1, 3]: 1; Isomers modeled [1, 4]: achiral; IC50 [2, 5]: 160 µM; Ki [2, 6]: 150 µM; Ligand efficiency (binding enery per heavy atom) [2, 7]: 0.28

**Q.** Which X-ray crystal structure ([1]; crystal structure with Mac1 determined (TRUE)) does the source give for Nc1ncnc2c1ncn2[C@@H]1O[C@H](COP(=O)(O)OP(=O)(O)OC[C@H]2O[C@@H](O)[C@H](O)[C@@H]2O)[C@@H](O)[C@H]1O.[Na].[Na] [ADP-ribose, reference compound] here?
**A.** TRUE

**Q.** And the Hill slope ([2]; HTRF dose-response fit, Mac1)?
**A.** 1.1

**Q.** With Cc1c(C)n(Cc2ccccc2)c2ncnc(N)c12 [AVI-321] as the compound, how does the “Number of isomers bound” value [1, 8] read?
**A.** 1

**Q.** What about the Isomers modeled [1, 9] of the same compound?
**A.** achiral

**Q.** And the inhibition at 200 µM ([2]; Single dose, 200 μM, mean of three technical replicates, read-out: Average % competition)?
**A.** 19%

**Q.** What about the inhibition at 200 µM [2, 10] of the same compound?
**A.** 19%

**Q.** Which results are given for OCC1CC2(CCC2)CN1c1ncnc2[nH]ccc12 (stereo not shown) [AVI-3728]?
**A.** Number of isomers bound [1, 8]: 1; PanDDA run, TFA/DMSO background map: 1-BDC ([1]; soak concentration 10 mM): 0.26; PanDDA run, TFA/DMSO background map: Hit ([1]; soak concentration 10 mM): TRUE; Isomers modeled [1, 9]: S,S; inhibition at 200 µM [2, 11]: 79%; inhibition at 200 µM [2, 10]: 79%

**Q.** Which “Number of isomers bound” value [1, 8] does the source give for Cc1ccc(CC(CO)Nc2ncnc3[nH]ccc23)cc1C (stereo not shown) [AVI-3684] here?
**A.** 2

**Q.** And the Isomers modeled [1, 9]?
**A.** R,S

**Q.** And the inhibition at 200 µM [2, 12]?
**A.** < 10%

**Q.** What about the inhibition at 200 µM [2, 10] of the same compound?
**A.** < 10%

**Q.** What does the source list for OCC(CC1CCOC1)Nc1ncnc2[nH]ccc12 (stereo not shown) [AVI-3665]?
**A.** PanDDA run, TFA/DMSO background map: 1-BDC ([1]; crystal soak 10 mM): 0.15; PanDDA run, TFA/DMSO background map: Hit ([1]; crystal soak 10 mM): TRUE; Number of isomers bound [1, 8]: 1; inhibition at 200 µM [2, 12]: 11%; inhibition at 200 µM [2, 10]: 11%

**Q.** For CC(C)(O)[C@@H]1CCCN1c1ncnc2[nH]ccc12 [AVI-1445, (S)-2-(1-(7H-pyrrolo[2,3-d]pyrimidin-4-yl)pyrrolidin-2-yl)propan-2-ol], which 1-BDC [1] is on record?
**A.** 0.12

**Q.** What about the “Pandda run, overall: Modeled” value ([1]; crystal soak, soak concentration 10 mM) of the same compound?
**A.** TRUE

**Q.** What about the “Pandda run, overall: Hit” value ([1]; crystal soak, soak concentration 10 mM, TRUE = ligand hit) of the same compound?
**A.** TRUE

**Q.** What about the “Total number of conformations” value [1] of the same compound?
**A.** 1

**Q.** What about the “Number of isomers bound” value [1, 8] of the same compound?
**A.** 1

**Q.** What about the “2*(1-BDC) (%)” value ([1]; occupancy estimate from PanDDA 1-BDC) of the same compound?
**A.** 24%

**Q.** And the “X-ray crystallography: Binding site” value ([1]; site where the ligand is bound in the X-ray crystal structure)?
**A.** Adenosine

**Q.** What about the “PanDDA run, DMSO background map: 1-BDC” value [1, 13] of the same compound?
**A.** 0.12

**Q.** And the “PanDDA run, DMSO background map: Hit” value [1, 13]?
**A.** TRUE

**Q.** And the “PanDDA run, TFA/DMSO background map: 1-BDC” value ([1]; soak concentration 10 mM)?
**A.** 0.12

**Q.** And the “PanDDA run, TFA/DMSO background map: Hit” value ([1]; soak concentration 10 mM)?
**A.** TRUE

**Q.** What about the “fold decrease in affinity compared to AVI-607” value ([2]; HTRF) of the same compound?
**A.** ~ 5 fold

**Q.** And the Hill slope ([2]; HTRF dose-response fit, Mac1)?
**A.** 1.1

**Q.** And the inhibition at 200 µM [2, 11]?
**A.** 75%

**Q.** What about the “SARS CoV-2 macrodomain HTRF assay: Hillslope” value ([2]; dose-response fit) of the same compound?
**A.** 1.6

**Q.** And the Ki [2, 6]?
**A.** 100 µM

**Q.** And the “Ligand efficiency (binding enery per heavy atom)” value [2, 7]?
**A.** 0.31

**Q.** And the inhibition at 200 µM [2, 10]?
**A.** 75%

**Q.** What about the IC50 ([2]; read-out: HTRF IC50) of the same compound?
**A.** 110 µM

**Q.** Which “Number of isomers bound” value [1, 3] does the source give for CC(C)(O)C1C2CCCCC2CN1c1ncnc2[nH]ccc12 (stereo not shown) [AVI-4127] here?
**A.** 2

**Q.** And the Isomers modeled [1, 4]?
**A.** SSR,SRS

**Q.** What about the IC50 [2, 5] of the same compound?
**A.** 130 µM

**Q.** And the Ki [2, 6]?
**A.** 120 µM

**Q.** What about the “Ligand efficiency (binding enery per heavy atom)” value [2, 7] of the same compound?
**A.** 0.25

**Q.** Which “Number of isomers bound” value [1, 3] does the source give for CC(C)(CO)Nc1ncnc2[nH]ccc12 [AVI-5266] here?
**A.** 1

**Q.** And the Isomers modeled [1, 4]?
**A.** achiral

**Q.** What about the IC50 [2, 14] of the same compound?
**A.** 32 µM

**Q.** And the Ki [2, 15]?
**A.** 30 µM

**Q.** And the IC50 ([2]; read-out: HTRF IC50)?
**A.** 110 µM

**Q.** For CC(O)C(C)Nc1ncnc2[nH]ccc12 (stereo not shown) [AVI-5158], which “Number of isomers bound” value [1, 3] is on record?
**A.** 2

**Q.** And the Isomers modeled [1, 4]?
**A.** RS,RR

**Q.** And the inhibition at 200 µM [2, 12]?
**A.** 32%

**Q.** What about the inhibition at 200 µM [2, 10] of the same compound?
**A.** 32%

**Q.** With Cc1sc2ncnc(Sc3ccccc3C(=O)O)c2c1C [AVI-317] as the compound, how does the “Number of isomers bound” value [1, 8] read?
**A.** 1

**Q.** What about the Isomers modeled [1, 9] of the same compound?
**A.** achiral,achiral

**Q.** And the IC50 ([2]; Dose-response, SARS CoV-2 macrodomain HTRF assay, read-out: IC50)?
**A.** > 1000 µM

**Q.** With OC1(CNc2ncnc3[nH]ccc23)CC2CCC1CC2 (stereo not shown) [AVI-4320] as the compound, how does the “Number of isomers bound” value [1, 3] read?
**A.** 1

**Q.** What about the IC50 [2, 5] of the same compound?
**A.** 83 µM

**Q.** And the Ki [2, 6]?
**A.** 77 µM

**Q.** What about the “Ligand efficiency (binding enery per heavy atom)” value [2, 7] of the same compound?
**A.** 0.28

**Q.** Which “Number of isomers bound” value [1, 8] does the source give for CC1(C)CCC(CO)N(c2ncnc3[nH]ccc23)C1 (stereo not shown) [AVI-3726] here?
**A.** 2

**Q.** What about the Isomers modeled [1, 9] of the same compound?
**A.** R,R,S

**Q.** What about the inhibition at 200 µM [2, 11] of the same compound?
**A.** 76%

**Q.** And the inhibition at 200 µM [2, 10]?
**A.** 76%

**Q.** What does the source list for OCC(CC(F)(F)F)Nc1ncnc2[nH]ccc12 (stereo not shown) [AVI-3637]?
**A.** Number of isomers bound [1, 8]: 1; PanDDA run, TFA/DMSO background map: 1-BDC ([1]; soak concentration 10 mM): 0.21; PanDDA run, TFA/DMSO background map: Hit ([1]; soak concentration 10 mM): TRUE; inhibition at 200 µM [2, 12]: 50%; inhibition at 200 µM [2, 10]: 50%

**Q.** Which results are given for Cc1c[nH]c2ncnc(NCC3(O)CCCC3)c12 [AVI-3760, 1-(((5-methyl-7H-pyrrolo[2,3-d]pyrimidin-4-yl)amino)methyl)cyclopentan-1-ol]?
**A.** Occupancy difference (refined_occupancy - 2*(1-BDC)) [1]: 18; Refined ligand occupancy (%) [1]: 50%; 1-BDC [1]: 0.16; X-ray crystal structure ([1]; X-ray crystal structure determined (TRUE)): TRUE; Hit (PanDDA run, overall) ([1]; crystal soak 10 mM, P43 crystals): TRUE; Hit (PanDDA run, DMSO background map) ([1]; crystal soak 10 mM, DMSO background map): TRUE; 1-BDC (PanDDA run, DMSO background map) ([1]; crystal soak 10 mM, DMSO background map, event 1): 0.19 and 0.16; Total number of conformations [1]: 2; Number of isomers bound [1, 3]: 1; 2*(1-BDC) (%) ([1]; occupancy estimate from PanDDA BDC): 32%; Binding site ([1]; site of ligand in X-ray crystal structure): Adenosine; Isomers modeled [1, 4]: achiral,achiral; Hill slope ([2]; HTRF dose-response fit, Mac1): 1.1; Ligand efficiency (binding enery per heavy atom) ([2]; SARS CoV-2 macrodomain HTRF assay): 0.36; Hill slope ([2]; SARS CoV-2 macrodomain HTRF assay, dose-response): 1.1; IC50 [2, 14]: 19 µM; Ki [2, 15]: 18 µM

**Q.** C#CCC(CO)Nc1ncnc2[nH]ccc12 (stereo not shown) [AVI-3644] was tested. Which “PanDDA run, TFA/DMSO background map: 1-BDC” value ([1]; crystal soak 10 mM) did it give?
**A.** 0.11

**Q.** And the “PanDDA run, TFA/DMSO background map: Hit” value ([1]; crystal soak 10 mM)?
**A.** TRUE

**Q.** And the “Number of isomers bound” value [1, 8]?
**A.** 1

**Q.** What about the inhibition at 200 µM [2, 12] of the same compound?
**A.** 43%

**Q.** What about the inhibition at 200 µM [2, 10] of the same compound?
**A.** 43%
